Source: patent US20230124361A1, “SMALL MOLECULE STING ANTAGONISTS” (CURADEV PHARMA PVT. LTD., priority 2020, published 2023)

Target: T1, STING (Homo sapiens, UniProt Q86WV6, G230A/H232R/R293Q/R71H)
T1 construct: host or cells: THP1-Dual cells (human THP-1 monocyte line with Lucia/SEAP reporters)
Assay: Reporter gene expression assay in THP1-Dual cells (IRF pathway Lucia luciferase, 2',3'-cGAMP stimulation)
Type: cell-based
Settings: 10 min preincubation, 5 μM 2',3'-cGAMP, 20 hr, IRF reporter QUANTI-Luc, read-out: THP-1 (HAQ) Activity
How it was run: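 THP1-Dual cells preincubated 10 min with compound, then stimulated with 5 μM 2′,3′-cGAMP for 20 hr. Secreted Lucia luciferase (IRF reporter) measured in supernatant by luminescence; IC50 reported as ranges (A ≤1 μM, B >1–≤10 μM, C >10 μM).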

T1 sequence (Q86WV6 whole entry R71H/G230A/H232R/R293Q): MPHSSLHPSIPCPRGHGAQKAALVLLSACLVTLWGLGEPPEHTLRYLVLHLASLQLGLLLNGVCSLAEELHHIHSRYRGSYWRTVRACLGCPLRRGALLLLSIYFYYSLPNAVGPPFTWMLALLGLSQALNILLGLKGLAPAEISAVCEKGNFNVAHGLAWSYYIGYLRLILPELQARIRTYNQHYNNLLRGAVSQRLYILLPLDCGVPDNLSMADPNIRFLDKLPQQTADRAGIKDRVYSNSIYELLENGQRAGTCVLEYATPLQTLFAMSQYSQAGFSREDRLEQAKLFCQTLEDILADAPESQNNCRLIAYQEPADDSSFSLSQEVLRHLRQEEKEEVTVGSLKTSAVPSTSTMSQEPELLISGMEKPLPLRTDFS

Question: Which IC50 does the source give for O=C(Nc1ccc2c(c1)N(Cc1ccccc1)C(=O)CS2)Nc1ccc2cn[nH]c2c1 [Example 28, 1-(4-benzyl-3-oxo-3,4-dihydro-2H-benzo[b][1, 4]thiazin-6-yl)-3-(1H-indazol-6-yl)urea] here?
Answer: Its IC50 is 1000 to 10000 nM.

Question: For NC(=O)c1ccc(NC(=O)Nc2ccc3c(c2)N(Cc2ccccc2)C(=O)CS3)cc1 [Example 33, 4-(3-(4-benzyl-3-oxo-3,4-dihydro-2H-benzo[b][1, 4]thiazin-6-yl)ureido) benzamide], which IC50 is on record?
Answer: Its IC50 is 1000 to 10000 nM.

Question: NC(=O)c1cccc(CN2C(=O)COc3cc(NC(=O)Nc4ccc5cc[nH]c5c4)ccc32)c1 [Example 98, 3-((7-(3-(1H-indol-6-yl)ureido)-3-oxo-2,3-dihydro-4H-benzo[b][1,4]oxazin-4-yl)methyl)benzamide] was tested. Which IC50 did it give?
Answer: Its IC50 is 1000 to 10000 nM.

Question: Which IC50 does the source give for COC(=O)C(c1ccccc1)N1CCOc2ccc(NC(=O)Nc3ccc4cc[nH]c4c3)cc21 (centres unmarked) [Example 86] here?
Answer: The IC50 was 1000 to 10000 nM.

Question: Which IC50 does the source give for O=C(Nc1ccc2cc[nH]c2c1)Nc1cc2c(cc1Br)OCCN2Cc1ccccc1 [Example 180, 1-(4-benzyl-7-bromo-3,4-dihydro-2H-benzo[b][1, 4]oxazin-6-yl)-3-(1H-indol-6-yl)urea] here?
Answer: Its IC50 is 1000 to 10000 nM.

Question: O=C(Nc1ccc2c(c1)N(Cc1ccccc1)C(=O)CS2)Nc1ccc2nc[nH]c2c1 [Example 30, 1-(1H-benzo[d]imidazol-6-yl)-3-(4-benzyl-3-oxo-3,4-dihydro-2H-benzo[b][1, 4]thiazin-6-yl)urea] was tested. Which IC50 did it give?
Answer: The IC50 was 1000 to 10000 nM.

Question: Which IC50 does the source give for O=C(Nc1ccc2c(c1)N(CC1CC1)CCS2)Nc1ccc2cc[nH]c2c1 [Example 65, 1-(4-(cyclopropyl-methyl)-3,4-dihydro-2H-benzo[b][1, 4]thiazin-6-yl)-3-(1H-indol-6-yl)urea] here?
Answer: Its IC50 is ≤ 1000 nM.

Question: Which IC50 does the source give for N#Cc1ccc(CN2C(=O)COc3cc(NC(=O)Nc4ccc5cc[nH]c5c4)ccc32)cc1 [Example 123, 1-(4-(4-cyanobenzyl)-3-oxo-3,4-dihydro-2H-benzo[b][1,4]oxazin-7-yl)-3-(1H-indol-6-yl)urea] here?
Answer: The IC50 was 1000 to 10000 nM.

Question: For O=C(Nc1ccc2c(c1)OCCN2c1ncco1)Nc1ccc2cc[nH]c2c1 [Example 185, 1-(1H-indol-6-yl)-3-(4-(oxazol-2-yl)-3,4-dihydro-2H-benzo[b][1,4]oxazin-7-yl)urea], which IC50 is on record?
Answer: Its IC50 is ≤ 1000 nM.

Question: How did the IC50 turn out when O=C(Nc1ccc2c(c1)SCC(=O)N2Cc1c(F)ccc(O)c1Cl)Nc1ccc2cc[nH]c2c1 [Example 125, l-(4-(2-chloro-6-fluoro-3-hydroxybenzyl)-3-oxo-3,4-dihydro-2H-benzo[b][1, 4]thiazin-7-yl)-3-(1H-indol-6-yl)urea] was run?
Answer: The IC50 was ≤ 1000 nM.

Question: Which IC50 does the source give for O=C(Nc1cccnc1)Nc1ccc2c(c1)N(Cc1ccccc1)C(=O)CS2 [Example 4, 1-(4-benzyl-3-oxo-3,4-dihydro-2H-benzo[b][1, 4]thiazin-6-yl)-3-(pyridin-3-yl)urea] here?
Answer: The IC50 was 1000 to 10000 nM.

Question: With O=C(Cc1ccco1)Nc1ccc2c(c1)N(Cc1ccccc1)C(=O)CS2 [Example 48, N-(4-benzyl-3-oxo-3,4-dihydro-2H-benzo[b][1,4]thiazin-6-yl)-2-(furan-2-yl)acetamide] as the molecule, how does the IC50 read?
Answer: Its IC50 is > 10000 nM.

Question: How did the IC50 turn out when N#CCN1C(=O)COc2cc(NC(=O)Nc3ccc4cc[nH]c4c3)ccc21 [Example 157, 1-(4-(cyanomethyl)-3-oxo-3,4-dihydro-2H-benzo[b][1, 4]oxazin-7-yl)-3-(1H-indol-6-yl)urea] was run?
Answer: The IC50 was 1000 to 10000 nM.

Question: O=S(=O)(Nc1ccc2c(c1)N(Cc1ccccc1)CCO2)Nc1ccc2cc[nH]c2c1 [Example 176, 4-Benzyl-N-(1H-indol-6-ylsulfamoyl)-2,3-dihydro-1,4-benzoxazin-6-amine] was tested. Which IC50 did it give?
Answer: Its IC50 is 1000 to 10000 nM.

Question: With O=C(Nc1ccc2c(c1)OCCN2Cc1c(F)cccc1Cl)Nc1ccc2cc[nH]c2c1 [Example 170, 1-(4-(2-chloro-6-fluorobenzyl)-3,4-dihydro-2H-benzo[b][1, 4]oxazin-7-yl)-3-(1H-indol-6-yl)urea] as the molecule, how does the IC50 read?
Answer: The IC50 was 1000 to 10000 nM.

Question: For Nc1cccc(CN2C(=O)CSc3ccc(NC(=O)Nc4ccc5cc[nH]c5c4)cc32)c1 [Example 53, l-(4-(3-aminobenzyl)-3-oxo-3,4-dihydro-2H-benzo[b][1, 4]thiazin-6-yl)-3-(1H-indol-6-yl)urea], which IC50 is on record?
Answer: The IC50 was > 10000 nM.

Question: O=C1CSc2ccc(COCc3ccc(F)cc3)cc2N1Cc1c(F)cccc1Cl [Example 42] was tested. Which IC50 did it give?
Answer: The IC50 was 1000 to 10000 nM.
